According to patent US7601716B2, “Pyridopyrazines and derivatives thereof as ALK and c-Met inhibitors” (Cephalon, Inc., priority 2006, dated 2009):
Where a name gives a salt, the structure may show the parent alone.

Assays:
[1] = biological target: baculovirus-expressed ALK (Homo sapiens, UniProt Q9UM73); test: ALK Kinase Assay (ELISA/TRF, PLC-γ substrate); assay type: biochemical; details: read-out: ALK Kinase Inhibition (IC50); also: 1 µM ATP (Km level)
Procedure, shortened: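 Plates coated with GST–PLC-γ fusion substrate (10 μg/mL in TBS); reaction started with 30 ng/ml ALK, run 15 minutes at 37° C. Phosphotyrosine detected by Eu-N1 PT66 antibody (1 hour, 37° C) and time-resolved fluorescence after enhancement. IC50 from sigmoidal variable-slope fit of percent inhibition versus log concentration.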

[2] = biological target: T1, c-Met (phospho-c-Met) in HT29 cells (Homo sapiens, UniProt P08581); test: c-Met Cellular Activity/Autophosphorylation Assay, HT29 cells; assay type: cell-based; details: for inhibition at 1 µM: HT-29, 1 μM compound, read-out: c-Met autophosphorylation inhibition score, HT29 Cells (1 μM); for inhibition at 3 µM: HT-29, 3 μM compound, read-out: c-Met autophosphorylation inhibition score, HT29 Cells (3 μM)
T1 construct: endogenous in cells; host or cells: HT29, A549 (HGF-stimulated), GTL-16
Protocol: (§1) HT29 and GTL-16 cells were serum starved for one hour in media containing 0.05% BSA and varying concentrations of Example compounds (1-10 μM). A549 cells were serum starved overnight in media containing 0.05% BSA then treated for one hour with Example compounds followed by a 15 minute stimulation with 50 ng/mL HGF (Peprotech, Rocky Hill, N.J.), respectively. Samples were resolved by electrophoresis on a 3-8% Tris-Acetate gel (40 ma/gel) and then transferred to a nitrocellulose membrane. Membranes were blocked for one hour at room temperature in Odyssey Blocking Buffer (Licor #927-40000) diluted 1:1 with 1×TBS. Membranes were then co-incubated overnight at 4° C. with primary antibodies [total Met (Cell Signaling, #3127) and Phospho-Met (Biosource, #44-888G) 1:1000 each in Odyssey Blocking Buffer diluted 1:1 with 1×TBS-T 0.05%]. The next day, membranes were washed and co-incubated with secondary antibodies [Goat anti mouse IRDye800 (Rockland, #610-132-121) and Goat anti rabbit Alexa fluor 700 (Molecular Probes, #A21038) 1:10,000] in Odyssey Blocking Buffer diluted 1:1 with 1×TBS-T 0.05% for one hour at room temperature protected from light. Blots were then washed and read on the Odyssey Infrared Imager. Total c-Met signal was visualized at 800 nm detection and phospho-c-Met signal was visualized at 700 nm detection.

[3] = biological target: T2, c-Met (phospho-c-Met) in A549 cells (Homo sapiens, UniProt P08581); test: c-Met Cellular Activity/Autophosphorylation Assay, A549 cells (HGF stimulated); assay type: cell-based; details: 50 ng/mL HGF; for inhibition at 1 µM: 1 μM compound, read-out: c-Met autophosphorylation inhibition score, A549 Cells (1 μM); for inhibition at 3 µM: 3 μM compound, read-out: c-Met autophosphorylation inhibition score, A549 Cells (3 μM)
T2 construct: endogenous in cells; host or cells: HT29, A549 (HGF-stimulated), GTL-16
Protocol: as §1

[4] = biological target: T3, c-Met (cytoplasmic domain) (Homo sapiens, UniProt P08581); test: c-Met Kinase Assay (ELISA/TRF, PLC-γ substrate); assay type: biochemical; details: 3 μM ATP (Km level); read-out: c-Met Kinase Inhibition (IC50)
T3 construct: Reactions were initiated with 30 ng/mL c-Met (cytoplasmic domain, Invitrogen Corporation #PV3143); purchased Invitrogen Corporation PV3143
Procedure, shortened: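 c-Met cytoplasmic domain (30 ng/mL) phosphorylates plate-coated GST–PLC-γ for 15 min at 37 °C. Phosphotyrosine detected with Eu-labeled PT66 antibody by time-resolved fluorescence. IC50 from variable-slope sigmoidal fit of % inhibition vs log concentration.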

NPM-ALK = biological target: T4, NPM-ALK (Homo sapiens, UniProt Q9UM73); test: ALK Cellular Assay (phospho-NPM-ALK immunoblot / ALK tyrosine phosphorylation ELISA); assay type: cell-based
T4 construct: a fusion protein consisting of nucleophosmin (NMP) and the intracellular domain of ALK; the other entry of the earlier key: NPM1 (P06748, Nucleophosmin)
Protocol: Immunoblotting of phospho-NPM-ALK and total NPM-ALK from cell lysates was carried out according to the protocols provided by the antibody suppliers. In brief, after treatment of Example compounds, cells were lysed in Frak lysis buffer [10 mM Tris, pH 7.5, 1% Triton X-100, 50 mM sodium chloride, 20 mM sodium fluoride, 2 mM sodium pyrophosphate, 0.1% BSA, plus freshly prepared 1 mM activated sodium vanadate, 1 mM dithiothreitol (#165680050, ARCOS Organics, Geel, Belgium), and 1 mM PMSF (#837091, Boehringer Mannheim Biochemicals, Indianapolis, Ind.), protease inhibitors cocktail III (#539134-1Set, Calbiochem, 1:100 dilution)]. After brief sonication, the lysates were cleared by centrifugation, mixed with sample buffer and subjected to SDS-PAGE. Following transfer to membranes, the membranes were blotted with either rabbit phospho-NPM-ALK(Y664) (Cat^#3341) or ALK antibody (Cat^#3342) from Cell Signaling Technology (Beverly, Mass.), and then the HRP-conjugated goat anti-rabbit antibodies (Santa Cruz, Calif.) after washed in TBS/0.2% Tween-20. The protein bands were visualized with ECL Western Blotting detection reagents (RPN2106, Amersham Biosciences, Buckinghamshire, UK) and quantitated with gel-pro analyzer 3.1 software.
To measure ALK tyrosine phosphorylation in cells with an ELISA assay, fluoronunc plates (Cat^#437796, Nalge Nunc, Rochester, N.Y.) were pre-coated with goat anti-mouse IgG, and incubated with the capture mouse ALK antibody (Cat^#35-4300, Zymed, Seattle, Wash.) diluted 1:1000 in Superblock (Pierce, Rockford, Ill.). Following blocking, cell lysates were added to plates and incubated overnight at 4° C. Plates were incubated with the detecting antibody, anti-phospho-ALK (Y664) (Cell Signaling Technology), diluted at 1:2000, followed by incubation with goat anti-rabbit-IgG alkaline phosphatase to amplify the detection. Wells were exposed to the fluorogenic substrate 4-MeUP (#3368-04-5, Calbiochem) and the signal quantified using a CytoFluor® (series 4000) Fluorescence Multi-Well Plate Reader (Applied Biosystems, Foster City, Calif.).

T2 sequence (P08581 25-1390): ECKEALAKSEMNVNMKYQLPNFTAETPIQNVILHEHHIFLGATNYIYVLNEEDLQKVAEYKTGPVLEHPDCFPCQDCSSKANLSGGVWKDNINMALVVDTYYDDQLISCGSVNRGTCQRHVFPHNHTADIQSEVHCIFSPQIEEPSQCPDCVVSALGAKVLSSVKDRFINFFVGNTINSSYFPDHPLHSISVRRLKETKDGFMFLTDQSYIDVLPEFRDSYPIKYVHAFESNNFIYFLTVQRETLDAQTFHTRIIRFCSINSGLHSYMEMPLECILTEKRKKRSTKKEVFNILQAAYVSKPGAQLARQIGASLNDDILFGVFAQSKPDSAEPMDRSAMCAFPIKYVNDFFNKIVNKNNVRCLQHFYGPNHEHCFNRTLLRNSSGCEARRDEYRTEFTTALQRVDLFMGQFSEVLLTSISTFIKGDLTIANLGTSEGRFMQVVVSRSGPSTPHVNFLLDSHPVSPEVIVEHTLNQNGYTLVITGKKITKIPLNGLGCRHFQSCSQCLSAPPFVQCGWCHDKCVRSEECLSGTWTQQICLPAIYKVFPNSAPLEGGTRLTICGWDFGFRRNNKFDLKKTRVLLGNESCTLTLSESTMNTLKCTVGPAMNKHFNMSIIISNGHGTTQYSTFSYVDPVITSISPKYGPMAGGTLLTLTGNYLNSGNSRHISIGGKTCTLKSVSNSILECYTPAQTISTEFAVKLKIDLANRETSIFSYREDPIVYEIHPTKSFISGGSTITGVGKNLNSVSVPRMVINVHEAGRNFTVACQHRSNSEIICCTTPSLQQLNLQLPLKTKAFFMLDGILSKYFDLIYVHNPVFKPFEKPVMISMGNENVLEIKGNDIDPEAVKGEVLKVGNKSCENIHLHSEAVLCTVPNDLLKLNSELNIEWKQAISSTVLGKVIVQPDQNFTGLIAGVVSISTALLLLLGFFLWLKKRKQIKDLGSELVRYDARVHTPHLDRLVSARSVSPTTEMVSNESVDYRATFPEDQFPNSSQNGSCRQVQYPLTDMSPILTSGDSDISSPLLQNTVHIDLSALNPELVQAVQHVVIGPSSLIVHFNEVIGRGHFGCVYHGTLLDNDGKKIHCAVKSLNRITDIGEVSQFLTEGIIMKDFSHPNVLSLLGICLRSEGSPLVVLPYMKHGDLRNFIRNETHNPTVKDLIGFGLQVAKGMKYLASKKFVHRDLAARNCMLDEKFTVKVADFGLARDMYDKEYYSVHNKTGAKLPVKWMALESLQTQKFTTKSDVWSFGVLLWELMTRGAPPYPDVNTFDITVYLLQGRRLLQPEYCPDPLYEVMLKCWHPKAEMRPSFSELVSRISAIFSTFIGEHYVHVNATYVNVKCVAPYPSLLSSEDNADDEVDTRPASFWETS
T1 sequence (P08581 25-1390): as above
T4 sequence (Q9UM73 with tags, fused parts or gaps): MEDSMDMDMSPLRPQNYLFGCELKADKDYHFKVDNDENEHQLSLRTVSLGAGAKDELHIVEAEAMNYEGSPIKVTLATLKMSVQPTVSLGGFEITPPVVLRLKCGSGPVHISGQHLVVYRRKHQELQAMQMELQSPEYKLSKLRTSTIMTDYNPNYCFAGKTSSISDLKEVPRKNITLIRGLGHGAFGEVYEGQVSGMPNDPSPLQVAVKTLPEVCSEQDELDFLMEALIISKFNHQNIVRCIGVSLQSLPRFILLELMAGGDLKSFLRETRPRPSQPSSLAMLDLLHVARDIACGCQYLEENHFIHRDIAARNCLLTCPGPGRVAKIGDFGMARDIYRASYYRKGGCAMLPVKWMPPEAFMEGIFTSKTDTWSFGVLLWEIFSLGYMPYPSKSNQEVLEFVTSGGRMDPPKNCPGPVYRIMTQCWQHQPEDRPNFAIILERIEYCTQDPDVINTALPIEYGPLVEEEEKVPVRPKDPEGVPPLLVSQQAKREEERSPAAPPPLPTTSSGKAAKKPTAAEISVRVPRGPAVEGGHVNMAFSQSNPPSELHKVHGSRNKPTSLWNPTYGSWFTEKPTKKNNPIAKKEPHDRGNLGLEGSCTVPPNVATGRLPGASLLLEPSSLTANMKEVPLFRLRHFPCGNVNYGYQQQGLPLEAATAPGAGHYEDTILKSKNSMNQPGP
T3 sequence (P08581 956-1390 limits assumed): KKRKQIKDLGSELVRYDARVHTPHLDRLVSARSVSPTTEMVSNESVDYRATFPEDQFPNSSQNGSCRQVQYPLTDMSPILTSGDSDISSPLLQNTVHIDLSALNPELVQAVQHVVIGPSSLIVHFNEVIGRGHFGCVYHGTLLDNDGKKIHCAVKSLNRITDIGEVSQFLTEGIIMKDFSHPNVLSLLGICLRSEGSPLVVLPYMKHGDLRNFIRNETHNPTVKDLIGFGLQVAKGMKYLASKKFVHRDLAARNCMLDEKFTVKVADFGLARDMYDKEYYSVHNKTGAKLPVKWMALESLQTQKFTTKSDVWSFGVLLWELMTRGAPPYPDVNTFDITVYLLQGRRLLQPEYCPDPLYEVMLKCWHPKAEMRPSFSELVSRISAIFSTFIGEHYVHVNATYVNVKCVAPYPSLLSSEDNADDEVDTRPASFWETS

| Compound | IC50 [1] | inhibition at 1 µM [2] | inhibition at 3 µM [2] | inhibition at 1 µM [3] | inhibition at 3 µM [3] | IC50 [4] | IC50 (NPM-ALK) | melting point | inhibition at 1 µM (NPM-ALK; NPM-ALK, 1 μM compound, read-out: ALK Cellular Activity Inhibition Score at 1 μM) |
| --- | --- | --- | --- | --- | --- | --- | --- | --- | --- |
| CN1CCN(c2ccc(-c3cnc4c(c3)N(S(=O)(=O)c3cc(F)ccc3F)CCN4)cn2)CC1 [Example 122, 1-(2,5-Difluorobenzenesulfonyl)-7-[6-(4-methylpiperazin-1-yl)pyridin-3-yl]-1,2,3,4-tetrahydropyrido[2,3-b]pyrazine] | 100 to 1000 nM | 26 to 50% | 26 to 50% | 0 to 25% | 26 to 50% | 1000 to 10000 nM | – | – | – |
| Fc1ccc(F)c(CN2CCNc3ncc(-c4ccnc(N5CCOCC5)c4F)cc32)c1Cl [Example 102, 1-(2-Chloro-3,6-difluorobenzyl)-7-(3-fluoro-2-morpholin-4-yl-pyridin-4-yl)-1,2,3,4-tetrahydropyrido[2,3-b]pyrazine] | 100 to 1000 nM | 26 to 50% | 51 to 75% | 0 to 25% | 26 to 50% | 1000 to 10000 nM | – | – | – |
| O=C(O)c1ccc(-c2cnc3c(c2)N(Cc2cc(F)ccc2F)CCN3)cn1 [Example 72, 5-[1-(2,5-Difluorobenzyl)-1,2,3,4-tetrahydropyrido[2,3-b]pyrazin-7-yl]-pyridine-2-carboxylic acid] | 100 to 1000 nM | 26 to 50% | 26 to 50% | 0 to 25% | 0 to 25% | 1000 to 10000 nM | – | 240 °C (dec.) | – |
| CN1CCN(c2ccc(-c3cnc4c(c3)N(Cc3cc(Cl)ccc3C(F)(F)F)CCN4)cn2)CC1 [Example 118, 1-(5-Chloro-2-trifluoromethylbenzyl)-7-[6-(4-methylpiperazin-1-yl)pyridin-3-yl]-1,2,3,4-tetrahydropyrido[2,3-b]pyrazine] | – | 26 to 50% | 51 to 75% | 0 to 25% | 26 to 50% | – | – | – | – |
| CN1CCN(C(=O)c2ccc(-c3cnc4c(c3)N(Cc3cc(Cl)ccc3Cl)CCN4)cc2)CC1 [Example 132, {4-[1-(2,5-Dichlorobenzyl)-1,2,3,4-tetrahydropyrido[2,3-b]pyrazin-7-yl]phenyl}-(4-methylpiperazin-1-yl)methanone] | < 100 nM | – | – | – | – | 1000 to 10000 nM | 251 to 500 nM | – | – |
| CN1CCN(C(=O)c2ccc(-c3cnc4c(c3)N(Cc3c(F)ccc(F)c3Cl)CCN4)cc2)CC1 [Example 104, {4-[1-(2-Chloro-3,6-difluorobenzyl)-1,2,3,4-tetrahydropyrido[2,3-b]pyrazin-7-yl]phenyl}-(4-methylpiperazin-1-yl)methanone] | < 100 nM | 0 to 25% | 51 to 75% | – | – | 100 to 1000 nM | – | – | – |
| CN1CCN(c2ccc(-c3cnc4c(c3)N(Cc3cc(C(F)(F)F)ccc3Cl)CCN4)cn2)CC1 [Example 120, 1-(2-Chloro-5-trifluoromethylbenzyl)-7-[6-(4-methylpiperazin-1-yl)pyridin-3-yl]-1,2,3,4-tetrahydropyrido[2,3-b]pyrazine] | 100 to 1000 nM | 26 to 50% | 26 to 50% | 0 to 25% | 26 to 50% | 1000 to 10000 nM | – | – | – |
| O=C(c1ccc(-c2cnc3c(c2)N(Cc2cc(F)ccc2F)CCN3)cn1)N1CCOCC1 [Example 76, {5-[1-(2,5-Difluorobenzyl)-1,2,3,4-tetrahydropyrido[2,3-b]pyrazin-7-yl]-pyridin-2-yl}morpholin-4-yl-methanone] | 100 to 1000 nM | 0 to 25% | 26 to 50% | 0 to 25% | 0 to 25% | 1000 to 10000 nM | – | 111 to 113 °C | – |

Second part, the compound after the results:

| IC50 [1] | inhibition at 1 µM [2] | inhibition at 3 µM [2] | inhibition at 1 µM [3] | inhibition at 3 µM [3] | IC50 [4] | IC50 (NPM-ALK) | melting point | inhibition at 1 µM (NPM-ALK; NPM-ALK, 1 μM compound, read-out: ALK Cellular Activity Inhibition Score at 1 μM) | Compound |
| --- | --- | --- | --- | --- | --- | --- | --- | --- | --- |
| < 100 nM | 0 to 25% | 26 to 50% | 0 to 25% | 0 to 25% | 100 to 1000 nM | – | – | – | O=C(c1ccc(-c2cnc3c(c2)N(Cc2cc(Cl)ccc2C(F)(F)F)CCN3)cc1)N1CCC(N2CCOCC2)CC1 [Example 287, (4-{1-[5-Chloro-2-(trifluoromethyl)benzyl]-1,2,3,4-tetrahydropyrido[2,3-b]pyrazin-7-yl}phenyl)-(4-morpholin-4-yl-piperidin-1-yl)methanone] |
| < 100 nM | – | – | – | – | 1000 to 10000 nM | 251 to 500 nM | – | – | CN(C)CCCCNC(=O)c1cnc2c(c1)N(Cc1cc(Cl)ccc1C(F)(F)F)CCN2 [Example 295, 1-[5-Chloro-2-(trifluoromethyl)benzyl]-1,2,3,4-tetrahydropyrido[2,3-b]pyrazine-7-carboxylic acid [4-(dimethylamino)butyl]amide] |
| < 100 nM | – | – | – | – | 1000 to 10000 nM | 251 to 500 nM | – | – | CN1CCN(c2ccc(-c3cnc4c(c3)N(Cc3cc(Cl)ccc3Cl)CCN4)cn2)CC1 [Example 180, 1-(2,5-Dichlorobenzyl)-7-[6-(4-methylpiperazin-1-yl)pyridin-3-yl]-1,2,3,4-tetrahydropyrido[2,3-b]pyrazine] |
| 100 to 1000 nM | – | – | – | – | 1000 to 10000 nM | – | – | 0 to 25% | CN(C)CCCCNC(=O)c1ccc(-c2cnc3c(c2)N(Cc2c(Cl)cccc2Cl)C(=O)CN3)cc1 [Example 144, 4-[1-(2,6-Dichlorobenzyl)-2-oxo-1,2,3,4-tetrahydropyrido[2,3-b]pyrazin-7-yl]-N-(4-dimethylaminobutyl)benzamide, trifluoroacetic acid salt] |
| < 100 nM | – | – | – | – | 1000 to 10000 nM | 251 to 500 nM | – | – | COC1CCN(C(=O)c2ccc(-c3cnc4c(c3)N(Cc3cc(Cl)ccc3C(F)(F)F)CCN4)cc2)CC1 [Example 205] |
| < 100 nM | 51 to 75% | 76 to 100% | – | – | 1000 to 10000 nM | – | > 200 °C | – | Nc1ccc(-c2cnc3c(c2)N(Cc2c(F)ccc(F)c2Cl)CCN3)cn1 [Example 184, 5-[1-(2-Chloro-3,6-difluorobenzyl)-1,2,3,4-tetrahydropyrido[2,3-b]pyrazin-7-yl]-pyridin-2-ylamine] |
| 1000 to 10000 nM | 0 to 25% | 26 to 50% | 0 to 25% | 0 to 25% | 10000 to 100000 nM | – | – | – | CC(C)(C)OC(=O)NCC#Cc1cnc2c(c1)N(Cc1cc(Cl)ccc1Cl)CCN2 [Example 168, {3-[1-(2,5-Dichlorobenzyl)-1,2,3,4-tetrahydropyrido[2,3-b]pyrazin-7-yl]prop-2-ynyl}carbamic acid tert-butyl ester] |
